Assay results reported in paper PMC9916685, “Discovery of Small Molecule COX-1 and Akt Inhibitors as Anti-NSCLC Agents Endowed with Anti-Inflammatory Action” (International Journal of Molecular Sciences, 2023).
One block for each molecule: values may come before it.

Tests used:
COX-1 [1] = conditions: cited from earlier work
COX-2 [2] = conditions: cited from earlier work
[3] = system: A549 human lung adenocarcinoma cells; assay: MTT cytotoxicity assay, A549 cells; assay type: cell-based; conditions: mean ± SD
Method: (§1) A549 human lung adenocarcinoma and L929 mouse fibroblast cell lines were obtained from American Type Culture Collection (ATCC) (Manassas, VA, USA). Both cell lines were cultured, and drug treatments were carried out as previously reported.
(§2) MTT assay was conducted as previously explained in the literature with small modifications. Cisplatin was used as a positive control. The assay was performed in triplicate. IC50 data (µM) were expressed as mean ± SD.

Akt [4] = assay: Akt Colorimetric In-Cell ELISA in A549 cells; assay type: cell-based, human; conditions: 24 h, mean ± SD, read-out: Akt inhibition IC50 in A549 cells
Method: The assay was performed in triplicate. IC50 data (µM) were expressed as mean ± SD.

A549 cells = assay: Annexin V-FITC/PI flow cytometry-based apoptosis detection; conditions: A549, 24 h; for percentage of A549 cells undergoing apoptosis (early and late): sum of early and late
COX-1 [5] = biological target: T1, COX-1 (Ovis aries, UniProt P05979); assay: COX (ovine) colorimetric inhibitor screening assay, COX-1; assay type: biochemical; conditions: for IC50: ovine COX-1, colorimetric, triplicate, mean ± SD; for SI (IC50 for COX-1/IC50 for COX-2): selectivity index
T1 construct: purchased Cayman
T1 sequence (P05979 25-600): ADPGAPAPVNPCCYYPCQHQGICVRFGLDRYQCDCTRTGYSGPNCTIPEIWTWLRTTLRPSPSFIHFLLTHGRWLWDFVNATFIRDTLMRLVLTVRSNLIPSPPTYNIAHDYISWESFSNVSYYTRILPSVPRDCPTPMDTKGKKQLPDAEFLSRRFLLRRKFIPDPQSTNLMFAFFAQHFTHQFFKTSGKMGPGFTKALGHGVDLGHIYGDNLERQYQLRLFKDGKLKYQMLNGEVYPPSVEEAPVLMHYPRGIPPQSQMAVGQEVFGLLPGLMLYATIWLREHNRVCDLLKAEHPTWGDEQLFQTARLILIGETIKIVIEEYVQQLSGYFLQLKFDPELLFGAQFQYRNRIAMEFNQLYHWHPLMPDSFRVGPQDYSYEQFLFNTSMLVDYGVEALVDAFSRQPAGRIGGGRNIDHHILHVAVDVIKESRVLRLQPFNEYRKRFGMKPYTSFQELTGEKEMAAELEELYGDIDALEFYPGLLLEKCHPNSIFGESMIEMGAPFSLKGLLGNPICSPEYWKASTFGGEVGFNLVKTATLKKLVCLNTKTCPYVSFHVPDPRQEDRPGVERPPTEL
Method: (§3) COX (ovine) Colorimetric Inhibitor Screening Assay (Cayman, Ann Arbor, MI, USA) was conducted to detect the peroxidase component of COX-1 and COX-2 according to the manufacturer’s instructions. The assay was performed in triplicate. Half maximal inhibitory concentration (IC50) data (µM) were expressed as mean ± SD.

COX-2 [6] = biological target: T2, COX-2 (Ovis aries, UniProt P79208); assay: COX (ovine) colorimetric inhibitor screening assay, COX-2; assay type: biochemical; conditions: ovine COX-2, colorimetric, triplicate, mean ± SD
T2 construct: purchased Cayman
T2 sequence (P79208 17-603): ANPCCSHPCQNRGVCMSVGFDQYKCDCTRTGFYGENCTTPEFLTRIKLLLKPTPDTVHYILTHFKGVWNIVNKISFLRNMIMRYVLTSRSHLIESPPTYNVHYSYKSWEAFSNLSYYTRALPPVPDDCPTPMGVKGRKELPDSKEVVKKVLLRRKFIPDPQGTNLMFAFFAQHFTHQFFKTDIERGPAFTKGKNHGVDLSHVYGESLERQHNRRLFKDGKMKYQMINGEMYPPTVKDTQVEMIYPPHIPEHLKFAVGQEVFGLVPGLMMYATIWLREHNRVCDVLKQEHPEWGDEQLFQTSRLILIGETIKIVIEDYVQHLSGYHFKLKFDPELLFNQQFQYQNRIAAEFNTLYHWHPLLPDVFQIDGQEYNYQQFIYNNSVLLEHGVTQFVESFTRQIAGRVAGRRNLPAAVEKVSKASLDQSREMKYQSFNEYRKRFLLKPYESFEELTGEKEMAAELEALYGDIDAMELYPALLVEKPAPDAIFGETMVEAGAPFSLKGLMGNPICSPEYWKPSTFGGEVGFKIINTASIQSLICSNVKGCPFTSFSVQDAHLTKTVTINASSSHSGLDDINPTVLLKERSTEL
Method: as §3

[7] = system: L929 mouse fibroblast (normal) cells; assay: MTT cytotoxicity assay, L929 normal cells; assay type: cell-based; conditions: for IC50: MTT, L929 mouse fibroblast cells, mean ± SD; for cytotoxicity against L929 cells at effective concentrations: in words, at concentrations effective for COX-1 inhibition
Method: as §1, §2

myeloperoxidase (MPO) = assay: LPS-induced sepsis model, serum MPO levels; assay type: in vivo, Sprague Dawley rats; conditions: for change of MPO activity compared to the LPS group: in words, LPS-induced sepsis, rats; for MPO (U/L): rat serum, 24 h after LPS 1 mg/kg i.p., 3b, 4a 10 mg/kg/day, indomethacin 5 mg/kg by gastric intubation for six days, mean ± SD, n = 8
Method: (§4) Male albino Sprague Dawley rats (~250–300 g) were procured from the Medical and Surgical Experimental Animals Application and Research Center of Eskisehir Osmangazi University (ESOGU). In the animal house, the rats were housed in stainless steel cages under standard atmospheric conditions at 22 ± 1 °C and exposed to 12 h/12 h light/dark cycle. Food and water were given ad libitum. All experiments and protocols reported in this work were approved by ESOGU Animal Experiments Local Ethics Committee (10 December 2018/700).
(§5) Compounds 3b, 4a, and indomethacin (Sigma-Aldrich, St. Louis, MO, USA) were dissolved in 5% dimethyl sulfoxide (DMSO) and then diluted. The final DMSO concentration in the solution was 0.5% (v/v). The agents were administered by gastric intubation.
(§6) Rats were randomly divided into five groups (n = 8) as control group, LPS group, test groups (3b and 4a), and reference group. 0.5% DMSO was used as control solution for LPS group. Indomethacin (5 mg/kg) was used as a reference agent. Control group (Group I) was fed with basal rat chow throughout the experimental period. LPS group (Group II) was fed with basal rat chow for six days (only 0.5% DMSO was administered by gastric intubation) and LPS was injected intraperitoneally in 0.9% sodium chloride solution only once on the 7th day. Groups III, IV, and V were fed with basal rat chow and compound 3b (10 mg/kg/day), compound 4a (10 mg/kg/day), and indomethacin were administered, respectively, by gastric intubation for six days. Then, LPS was injected intraperitoneally in 0.9% sodium chloride solution only once on the 7th day for three groups as well. After 24 h of LPS injection, all rats were sacrificed by ketamine (80 mg/kg) ve xylazine (10 mg/kg) anesthesia via intraperitoneal route. Blood samples were collected via cardiac puncture in tubes containing gel for obtaining serum.
Suzuki’s assay was performed with slight modifications. The rate of MPO-catalyzed oxidation of 3,3′,5,5′-tetramethylbenzidine (TMB) was followed by recording the absorbance increase at 655 nm for 5 min. Taking into account the linear phase of the reaction, the absorbance change was measured per minute. The enzyme activity was expressed as the amount of the enzyme producing one absorbance change per minute under assay conditions.

nitric oxide (NO) = assay: LPS-induced sepsis model, serum NO levels; assay type: in vivo, Sprague Dawley rats; conditions: rat serum, 24 h after LPS; 3b, 4a 10 mg/kg/day, indomethacin 5 mg/kg by gastric intubation six days; n = 8
Method: as §4, §5, §6
Nitrate and nitrite, which represent the best index of the entire NO production, are the stable end products of NO in vivo. Nitrate in serum was assayed by a slight modification of the Cd-reduction method as reported by Cortas and Wakid.

[8] = LPS-induced sepsis model, serum ALT and AST levels; assay type: in vivo, Sprague Dawley rats; conditions: rat serum, 24 h after LPS; 3b, 4a 10 mg/kg/day, indomethacin 5 mg/kg by gastric intubation six days; mean ± SD, n = 8
Method: as §4, §5, §6
Serum ALT and AST levels were determined using enzyme-based Roche Diagnostics kit in Roche Modular Systems analyzer by photometric assay based on the manufacturer’s instructions. The other serum samples were stored at −80 °C (Thermo Electron, Waltham, MA, USA) for subsequent analyses of MPO and NO levels.

Akt [9] = system: Akt; set-up: method as in doi:10.2174/1570180817999200618163507; conditions: 5RP7 H-ras oncogene transformed rat embryonic fibroblast cell line; cited from earlier work

Compound: N#Cc1ccc(C(=O)C=Cc2c[nH]c3ccc(Br)cc23)cc1 [3-(5-bromo-1H-indol-3-yl)-1-(4-cyanophenyl)prop-2-en-1-one]
COX-1 IC50 (COX-1 [1]): 8.10 µg/mL
COX-2 IC50 (COX-2 [2]): 9.50 µg/mL

Compound: COc1ccc2[nH]cc(C=CC(=O)c3ccc(S(C)(=O)=O)cc3)c2c1 [3-(5-methoxy-1H-indol-3-yl)-1-(4-(methylsulfonyl)phenyl)prop-2-en-1-one]
COX-1 IC50 (COX-1 [1]): 8.60 µg/mL

Compound: N#Cc1ccc(Oc2ccc(C=NNC(=S)Nc3ccc(S(=O)(=O)N4CCCCC4)cc3)cc2)cc1 [4-[4-(piperidin-1-ylsulfonyl)phenyl]-1-[4-(4-cyanophenoxy)benzylidene]thiosemicarbazide]
IC50 (COX-1 [1]): 1.89 µM

Compound: O=[N+]([O-])c1ccc(Oc2ccc(C=NNC(=S)Nc3ccc(S(=O)(=O)N4CCCCC4)cc3)cc2)cc1 [4-[4-(piperidin-1-ylsulfonyl)phenyl]-1-[4-(4-nitrophenoxy)benzylidene]thiosemicarbazide]
IC50 (COX-1 [1]): 13.4 µM
IC50 (COX-2 [2]): 12.6 µM

Compound: N.N.[Cl][Pt][Cl] [Cisplatin, reference compound]
IC50 [3]: 22.7 ± 4.04 µM
IC50 (Akt [4]): 9.3 ± 2.55 µM
Early Apoptosis (%) (A549 cells; compound at IC50): 2.43%
Late Apoptosis (%) (A549 cells; compound at IC50): 2.03%
Necrosis (%) (A549 cells; compound at IC50): 2.34%
Early Apoptosis (%) (A549 cells; compound at IC50/2): 3.69%
Late Apoptosis (%) (A549 cells; compound at IC50/2): 2.88%
Necrosis (%) (A549 cells; compound at IC50/2): 0.72%
percentage of A549 cells undergoing apoptosis (early and late) (A549 cells; compound at IC50/2): 6.57%
percentage of A549 cells undergoing apoptosis (early and late) (A549 cells; compound at IC50): 4.46%

IC50 (COX-1 [5]): 8.9 ± 0.14 µM
SI (IC50 for COX-1/IC50 for COX-2) (COX-1 [5]): 0.13
IC50 (COX-2 [6]): 71 ± 1.41 µM
IC50 (Akt [4]): 32.5 ± 4.95 µM
melting point: 306 to 307 °C
Compound: O=C(Cc1c[nH]c2ccccc12)NN=Cc1ccc(N2CCOCC2)cc1 [Compound 3b, 2-(1H-Indol-3-yl)-N′-(4-morpholinobenzylidene)acetohydrazide]
IC50 [7]: 177 ± 5.77 µM
cytotoxicity against L929 cells at effective concentrations [7]: did not show cytotoxicity
IC50 ([3]; Homo sapiens): 89.7 ± 10.8 µM
change of MPO activity compared to the LPS group (myeloperoxidase (MPO)): slightly decreased
MPO (U/L) (myeloperoxidase (MPO)): 1.50 ± 0.81 U/L
NO level, 25% Percentile (nitric oxide (NO)): 0.316 µmol/L
NO level, 75% Percentile (nitric oxide (NO)): 2.772 µmol/L
NO level, Median (nitric oxide (NO)): 0.667 µmol/L
ALT (U/L) [8]: 50.25 ± 21.86 U/L
AST (U/L) [8]: 114.90 ± 22.04 U/L
Early Apoptosis (%) (A549 cells; compound at IC50): 6.84%
Late Apoptosis (%) (A549 cells; compound at IC50): 6.01%
Necrosis (%) (A549 cells; compound at IC50): 0.48%
Early Apoptosis (%) (A549 cells; compound at IC50/2): 5.89%
Late Apoptosis (%) (A549 cells; compound at IC50/2): 5.78%
Necrosis (%) (A549 cells; compound at IC50/2): 0.36%
percentage of A549 cells undergoing apoptosis (early and late) (A549 cells; compound at IC50/2): 11.67%
percentage of A549 cells undergoing apoptosis (early and late) (A549 cells; compound at IC50): 12.85%

IC50 (COX-1 [5]): 10 ± 0.13 µM
SI (IC50 for COX-1/IC50 for COX-2) (COX-1 [5]): 0.13
IC50 (COX-2 [6]): 76.5 ± 6.36 µM
IC50 (Akt [4]): 45.3 ± 6.51 µM
melting point: 187 to 189 °C
Compound: O=C(Cc1c[nH]c2ccccc12)NNC(=S)Nc1ccc(Br)cc1 [Compound 4a, 4-(4-Bromophenyl)-1-[2-(1H-indol-3-yl)acetyl]thiosemicarbazide]
IC50 [7]: 84 ± 19.7 µM
cytotoxicity against L929 cells at effective concentrations [7]: did not show cytotoxicity
IC50 ([3]; Homo sapiens): 179 ± 77.6 µM
change of MPO activity compared to the LPS group (myeloperoxidase (MPO)): significantly decreased
MPO (U/L) (myeloperoxidase (MPO)): 0.84 ± 0.26 U/L
NO level, 25% Percentile (nitric oxide (NO)): 1.369 µmol/L
NO level, 75% Percentile (nitric oxide (NO)): 4.0 µmol/L
NO level, Median (nitric oxide (NO)): 2.509 µmol/L
ALT (U/L) [8]: 48.29 ± 26.88 U/L
AST (U/L) [8]: 132.30 ± 37.06 U/L
Early Apoptosis (%) (A549 cells; compound at IC50/2): 7.07%
Late Apoptosis (%) (A549 cells; compound at IC50/2): 6.62%
Necrosis (%) (A549 cells; compound at IC50/2): 0.60%
Early Apoptosis (%) (A549 cells; compound at IC50/4): 7.34%
Late Apoptosis (%) (A549 cells; compound at IC50/4): 5.19%
Necrosis (%) (A549 cells; compound at IC50/4): 0.37%

Compound: COc1ccc2c(c1)c(CC(=O)O)c(C)n2C(=O)c1ccc(Cl)cc1 [Indomethacin, reference compound]
MPO (U/L) (myeloperoxidase (MPO)): 1.06 ± 0.73 U/L
NO level, 25% Percentile (nitric oxide (NO)): 0.667 µmol/L
NO level, 75% Percentile (nitric oxide (NO)): 3.123 µmol/L
NO level, Median (nitric oxide (NO)): 1.281 µmol/L
ALT (U/L) [8]: 44.00 ± 14.64 U/L
AST (U/L) [8]: 123.50 ± 32.14 U/L

Compound: COc1ccc(-c2ccnc(SCC(=O)NN=Cc3ccccc3)n2)cc1 [N′-benzylidene-2-[(4-(4-methoxyphenyl)pyrimidin-2-yl)thio]acetohydrazide]
inhibition of Akt IC50 (Akt [9]): 0.50 µg/mL
